Our source for the IC50 and inhibition values is US5789434A, “Derivatives of substituted 4-biarylbutyric acid as matrix metalloprotease inhibitors” (priority 1995, dated 1998).

Where only a bound is given, the exact number is not on record here.

Type in all cases: biochemical
One assay concerns the target T1, MMP-3 (Homo sapiens, UniProt P08254).
T1 construct: Truncated Prostromelysin-257 was expressed in a soluble form in E.coli; made in house; host or cells: E. coli
Kind of assay: Automated MMP Profiling Assay, MMP-3 fluorogenic. The note with it: 96-well automated, P218. The source says:
This assay with each invention compound was run with the three enzymes MMP-3, MMP-9 and MMP-2 in parallel as adapted for a 96-well microtitre plate using a Hamilton A® workstation.

A further assay addresses T2, MMP-9 (Homo sapiens, UniProt P14780).
T2 construct: from tissue; host or cells: human polymorphonuclear leukocytes (PMN) from whole blood (New York Blood Center), PMA-stimulated supernatant
Kind of assay: Automated MMP Profiling Assay, MMP-9 fluorogenic. As to conditions: for IC50: 96-well automated, P218. The procedure:
Briefly, polymorphonuclear leukocytes (PMN) preparations were isolated as described above from 3 or more units of freshly drawn whole blood obtained from the New York Blood Center (New York, N.Y.). Cells were resuspended in phosphate buffered saline (PBS) containing 100 ng/ml phorbol myristate acetate (PMA) in the presence of 50 mM diisopropylfluorophospate (DFP), 1 μg/ml leupeptin and aprotinin, and 1 mg/ml catalase for 1 hr at 37° C. Supernatants were collected by centrifugation (300×g) and the samples were frozen at -70° C. All chromatographic methods were performed at 4° C. Thawed samples were concentrated 5-fold using an Amicon chamber equipped with a YM-10 membrane. The concentrate was pressure dialyzed against 0.02M Tris-HCl, 0.1M NaCl, 1 mM CaCl2, 1 μM ZnCl2, 0.001% Brij-35, 0.02% sodium azide (NaN3), pH 7.5 and applied to DEAE ion exchange chromatography resin which was previously equilibrated with the same buffer at a flow rate of 0.4 ml/min. The column was extensively washed with the same buffer and gelatinase was eluted as 4 ml fractions from the column with 0.02M Tris-HCl, 0.5M NaCl, 1 mM CaCl2, 1 μM ZnCl2, 0.001% Brij-35, 0.02% NaN3, pH 7.5. Gelatinase containing fractions were observed by gelatin zymography (see below), loaded onto a gelatin agarose affinity resin and washed with the same buffer. Gelatinase activity was eluted at a flow rate of 1 ml/min from the column as 1 ml fractions with 0.02M Tris-HCl, 1M NaCl, 1 mM CaCl2, 1 μM ZnCl2, 0.001% Brij-35, 0.02% NaN3, pH 7.5 containing 10% dimethyl sulfoxide (DMSO). The fractions containing gelatinase activity were pooled and dialyzed against 0.005M Tris-HCl, 5 mM NaCl, 0.5 mM CaCl2, 0.1 μM ZnCl2, 0.001% Brij-35, pH 7.4. The protein content associated with material was determined with a micro-BCA assay (Pierce, Rockford, Ill.), lyophilized and reconstituted to a desired working concentration (100 μg/ml).
This assay was run with a protocol analogous to that reported for MMP-3 inhibition using the synthetic peptide P218 and each of the three enzymes and measuring quenched fluorescence. This assay with each invention compound was run with the three enzymes MMP-3, MMP-9 and MMP-2 in parallel as adapted for a 96-well microtitre plate using a Hamilton A® workstation.

A further assay concerns the target T3, MMP-2 (Homo sapiens, UniProt P08253).
T3 sequence (P08253 110-660): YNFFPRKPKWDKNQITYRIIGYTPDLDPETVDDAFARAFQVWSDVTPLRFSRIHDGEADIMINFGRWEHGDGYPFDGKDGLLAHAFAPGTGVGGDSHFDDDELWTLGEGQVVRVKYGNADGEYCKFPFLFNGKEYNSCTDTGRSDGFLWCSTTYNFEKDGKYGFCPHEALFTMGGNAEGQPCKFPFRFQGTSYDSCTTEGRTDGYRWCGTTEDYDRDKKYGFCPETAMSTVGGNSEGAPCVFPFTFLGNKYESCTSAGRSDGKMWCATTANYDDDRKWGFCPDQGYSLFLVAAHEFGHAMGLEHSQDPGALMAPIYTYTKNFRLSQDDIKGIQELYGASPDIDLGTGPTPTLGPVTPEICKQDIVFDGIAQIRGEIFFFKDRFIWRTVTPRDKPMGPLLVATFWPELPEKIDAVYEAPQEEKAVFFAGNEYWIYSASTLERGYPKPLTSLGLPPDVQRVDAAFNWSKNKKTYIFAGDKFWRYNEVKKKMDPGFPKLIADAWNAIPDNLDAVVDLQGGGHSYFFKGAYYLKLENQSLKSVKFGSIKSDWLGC
Kind of assay: Automated MMP Profiling Assay, MMP-2 fluorogenic. The note with it: 96-well automated, P218; read-out: MMP-2 Fluorogenic IC50 (profiling).

T2 sequence (P14780 107-707 limits assumed): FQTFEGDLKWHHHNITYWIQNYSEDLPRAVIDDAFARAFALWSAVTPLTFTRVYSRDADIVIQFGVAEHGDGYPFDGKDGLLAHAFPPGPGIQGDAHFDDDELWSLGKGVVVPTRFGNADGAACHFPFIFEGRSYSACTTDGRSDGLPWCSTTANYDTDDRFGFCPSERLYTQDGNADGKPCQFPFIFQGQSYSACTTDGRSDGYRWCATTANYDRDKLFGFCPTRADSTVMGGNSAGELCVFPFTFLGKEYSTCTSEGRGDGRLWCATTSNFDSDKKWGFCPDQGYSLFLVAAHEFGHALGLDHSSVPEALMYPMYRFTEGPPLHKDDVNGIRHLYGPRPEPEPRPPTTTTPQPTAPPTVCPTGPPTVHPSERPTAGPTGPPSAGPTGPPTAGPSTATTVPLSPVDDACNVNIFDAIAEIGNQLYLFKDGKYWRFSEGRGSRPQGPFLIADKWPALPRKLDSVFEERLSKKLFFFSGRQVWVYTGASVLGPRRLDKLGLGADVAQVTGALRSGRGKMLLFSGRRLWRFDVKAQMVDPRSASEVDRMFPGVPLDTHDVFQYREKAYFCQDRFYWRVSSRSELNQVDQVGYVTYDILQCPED
T1 sequence (P08254 100-274 limits assumed): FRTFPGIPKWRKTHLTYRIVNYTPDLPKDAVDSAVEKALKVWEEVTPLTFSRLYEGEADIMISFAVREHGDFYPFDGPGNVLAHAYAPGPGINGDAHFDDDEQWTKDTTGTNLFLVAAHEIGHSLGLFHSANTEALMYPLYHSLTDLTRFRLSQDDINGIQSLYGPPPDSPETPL

One may read the IC50 as the midpoint of a concentration-inhibition curve. Regarding `CCCCNC(=O)c1ccccc1CCC(CC(=O)c1ccc(-c2ccc(Cl)cc2)cc1)C(=O)O` (stereo not drawn) [Example 147, [1,1'-Biphenyl]-4-butanoic acid, α-[2-[2-[(butylamino)carbonyl]phenyl]ethyl]-4'-chloro-γ-oxo-], the IC50 against MMP-3 was found to be 266 nM; on MMP-9 it was 676 nM; at MMP-2, 73 nM.
For `O=C(O)c1ccc(COc2ccc(-c3ccc(C(=O)CC(CCCc4ccccc4)C(=O)O)cc3)cc2)cc1` (stereo not drawn) [Example 113], the IC50 on MMP-3 was 28 nM; against MMP-9, 1330 nM; at MMP-2 it was 44 nM.
As to `O=C(O)[C@H]1[C@H](CN2C(=O)c3ccccc3C2=O)CC[C@@H]1C(=O)c1ccc(-c2ccc(Cl)cc2)cc1` (relative stereo) [Example 360, trans-5-[4-(4-chlorophenyl)phenylcarbonyl]-trans-2-phthalimidomethylcyclopentanecarboxylic acid], the 50% inhibitory concentration (IC50) against MMP-3 was 5.46 nM; at MMP-9, 0.93 nM; on MMP-2 it was 1.46 nM.
Take `CCCCCOc1ccc(-c2ccc(C(=O)CC(CCc3ccccc3)C(=O)O)cc2)cc1` (stereo not drawn) [Example 158, [1,1'-Biphenyl]-4-butanoic acid, γ-oxo-4'-(pentyloxy)-α-(2-phenylethyl)-]: the IC50 against MMP-3 is 37 nM; against MMP-9, more than 500 nM; at MMP-2, 32 nM.
Usually inhibition stands for the drop in the measured response relative to a control, in per cent. As for `CCCCCSc1ccc(-c2ccc(C(=O)CC(CCCc3ccccc3)C(=O)O)cc2)cc1` (stereo not drawn) [Example 72, [1,1'-Biphenyl]-4-butanoic acid, γ-oxo-4'-(pentylthio)-α-(3-phenylpropyl)-], the 50% inhibitory concentration (IC50) against MMP-3 stood at 409 nM; on MMP-2, 90 nM. On MMP-9, this molecule registered an inhibition at 5 µM of 22%.
Consider `O=C(Nc1ccc(-c2ccc(C(=O)CC(CCc3ccccc3)C(=O)O)cc2)cc1)OCc1ccccc1` (stereo not drawn) [Example 137, [1,1'-Biphenyl]-4-butanoic acid, γ-oxo-α-(2-phenylethyl)-4'-[[(phenylmethoxy)carbonyl]amino]-], for which the IC50 against MMP-3 was more than 1250 nM; at MMP-9, 1400 nM; on MMP-2, 548 nM.
Consider `CCCCCOc1ccc(-c2ccc(C(=O)[C@H]3CC[C@@H](Sc4ccccc4)[C@@H]3C(=O)O)cc2)cc1` (single isomer, unassigned) [Example 319, Cyclopentanecarboxylic acid, 2-[[4'-(pentyloxy)[1,1'-biphenyl]-4-yl]carbonyl]-5-(phenylthio)-, (1α,2β,5β)-(+)-], for which the figures for the IC50 at MMP-3, at MMP-9 and on MMP-2 were 30 nM, 197 nM and 4.1 nM, respectively.
For `CC(C)(C)CC(=O)Nc1ccc(-c2ccc(C(=O)CC(CCc3ccccc3)C(=O)O)cc2)cc1` (stereo not drawn) [Example 141, [1,1'-Biphenyl]-4-butanoic acid, 4'-[(3,3-dimethyl-1-oxobutyl)amino]-γ-oxo-α-(2-phenylethyl)-], the IC50 on MMP-3 was less than 5000 nM; on MMP-2, 1170 nM. The inhibition at 5 µM at MMP-9 was found to be 0%.
Regarding `O=C(NC[C@@H]1CC[C@H](C(=O)c2ccc(-c3ccc(Cl)cc3)cc2)[C@H]1C(=O)O)c1ccccc1` (relative stereo) [Example 370, Cyclopentanecarboxylic acid, 2-[(benzoylamino)methyl]-[(4'-chloro[1,1'-biphenyl]-4-yl)carbonyl]-, (1α,2β,5β)-], the 50% inhibitory concentration (IC50) at MMP-3 worked out at 24 nM; against MMP-9, 26 nM; on MMP-2, 8.7 nM.
With `CC(=O)OC[C@@H]1C[C@@H](C(=O)c2ccc(-c3ccc(Cl)cc3)cc2)[C@H]1C(=O)O` (relative stereo) [Example 397, Cyclobutanecarboxylic acid, 2-[(acetyloxy)methyl]-4-[(4'-chloro[1,1'-biphenyl]-4-yl)carbonyl]-, (1α,2β,4α)-], the IC50 turned out to be 3200 nM against MMP-3 and 750 nM at MMP-2. The same molecule showed an inhibition at 5 µM at MMP-9 of 40%.
The corresponding values for `O=C(CC(CCCc1ccccc1)C(=O)O)c1ccc(-c2ccc(OCc3ccccn3)cc2)cc1` (stereo not drawn) [Example 110, [1,1'-Biphenyl]-4-butanoic acid, γ-oxo-α-(3-phenylpropyl)-4'-(2-pyridinylmethoxy)-] are 37 nM, 38 nM and 26%.
`O=C(CC(CCN1C(=O)c2cccc3cccc(c23)C1=O)C(=O)O)c1ccc(-c2ccc(Cl)cc2)cc1` (stereo not drawn) [Example 410, 1H-Benz[de]isoquinoline-2(3H)-butanoic acid, α-[2-(4'-chloro[1,1'-biphenyl]-4-yl)-2-oxoethyl]-1,3-dioxo-]: the IC50 turned out to be 104 nM on MMP-3, 44 nM on MMP-9 and 80 nM at MMP-2.
On the same counts, the results for `O=C(CC(CCCc1ccccc1)C(=O)O)c1ccc(-c2ccc(Br)cc2)cc1` (stereo not drawn) [Example 134, [1,1'-Biphenyl]-4-butanoic acid, 4'-bromo-γ-oxo-α-(3-phenylpropyl)-] are 304 nM, 358 nM and 63 nM.
Consider `COC(=O)c1ccccc1SC[C@@H]1CC[C@H](C(=O)c2ccc(-c3ccc(Cl)cc3)cc2)[C@H]1C(=O)O` (relative stereo) [Example 376, Benzoic acid, 2-[[[2-carboxy-3-[(4'-chloro[1,1'-biphenyl]-4-yl)carbonyl]cyclopentyl]methyl]thio]-, 1-methyl ester, (1α,2β,3α)0], for which the IC50 against MMP-3 is 46 nM; against MMP-9, 95 nM; at MMP-2 it was 34 nM.
In the case of `O=C(O)[C@H]1[C@@H](SCc2ccccc2)CC[C@@H]1C(=O)c1ccc(-c2ccc(Cl)cc2)cc1` (relative stereo) [Example 440, Cyclopentanecarboxylic acid, 2-[(4'-chloro[1,1'-biphenyl]-4-yl)carbonyl]-5-[(phneylmethyl)thio]-, (1α,2β,5α)-], the figures for the IC50 against MMP-3, at MMP-9 and at MMP-2 were 58 nM, 380 nM and 43 nM, respectively.
On the same counts, the results for `COc1ccc(-c2ccc(C(=O)CC(CCc3ccccc3)C(=O)O)cc2)cc1` (stereo not drawn) [Example 154, [1,1'-Biphenyl]-4-butanoic acid, 4'-methoxy-γ-oxo-α-(2-phenylethyl)-] are 470 nM, 875 nM and 37 nM.
On the same counts, the results for `CCOc1ccc(-c2ccc(C(=O)CC(CCN3C(=O)c4cc5ccccc5cc4C3=O)C(=O)O)cc2)cc1` (stereo not drawn) [Example 429, 2H-Benz[.function.]isoindole-2-butanoic acid, α-[2-(4'-ethoxy[1,1'-biphenyl]-4-yl)-2-oxoethyl]-1,3-dihydro-1,3-dioxo-] are 23 nM, 1.6 nM and 23 nM.
Turning to `CCOc1ccc(-c2ccc(C(=O)CC(CCN3C(=O)CCC3=O)C(=O)O)cc2)cc1` (stereo not drawn) [Example 412, 1-Pyrrolidinebutanoic acid, α-[2-(4'-ethoxy[1,1'-biphenyl]-4-yl)-2-oxoethyl]-2,5-dioxo-], the IC50 on MMP-3 stood at 84 nM; against MMP-9 it was 41 nM; on MMP-2 it was 10 nM.
The corresponding values for `O=C(CC(CCCc1ccccc1)C(=O)O)c1ccc(-c2ccc(OCCc3ccccc3)cc2)cc1` (stereo not drawn) [Example 102, [1,1'-Biphenyl]-4-butanoic acid, γ-oxo-4'-(2-phenylethoxy)-α-(3-phenylpropyl)-] are 78 nM, 698 nM and 25 nM.
